Reference: US4321372A, “Antiulcer thiazol-2-ylcarbamoyl-carboxylic acids, esters and amides” (Pfizer Inc., priority 1980, dated 1982)
Structures can show the parent of a compound that is named as a salt.

How the values were obtained:
[1] = system: ethanol-induced rat ulcer; experiment: Ethanol-induced rat ulcer assay (oral antiulcer activity); type: in vivo; settings: for inhibition at 5 mg/kg: Rattus norvegicus, po; for inhibition at 5 mg/kg / % Inhibition (oral activity in the ethanol-induced rat ulcer assay): 5 mg./kg. orally, 15 min before absolute ethanol (1.0 ml.), male fasted rats, 8/group, lesions scored 1 hour after ethanol, based on ulcer index vs controls
Procedure: The antiulcer activity of the compounds of the present invention is evaluated by an ethanol-induced rat ulcer assay, a test reflecting clinical utility of these compounds in the treatment of peptic ulcers, particularly gastric ulcers.
The effectiveness of the products of this invention as antiulcer agents is determined in an ethanol-induced rat ulcer assay. In this test, overnight fasted male rats are orally administered either drug (5 mg./kg.) dissolved or suspended in water or dilute NaOH, or water (controls), fifteen minutes prior to an orally administered dose of absolute ethanol (1.0 ml.). One hour after the ethanol challenge the animals (8/group) are killed and the stomachs examined for the presence of lesions. After sacrifice the abdomen is opened and a locking hemostate placed at the pylorus. Six ml. of a 4% solution of formaldehyde is injected into the stomach with a gastric feeding tube and a second locking hemostate is used to seal the esophagus. The stomach is removed, opened along the greater curvature and examined for ulceration.
The scoring system used to quantitate the ethanol-induced lesions is given below.
1 Normal appearing stomach
2 Pinpoint sized lesions
3 Lesions, 2 or fewer; pin-
5 Lesions with hemorrhage
For each group of animals an ulcer index is calculated as follows:
Ulceration Index=(the sum of the scores of the group)×(the sum of the number of ulcers in the group)×(the fraction of the group having any incidence of ulceration).
The percent inhibition of ulcers is calculated as follows:
% Inhibition=100×[(ulcer index controls)-(ulcer index drug-treated)].div.(ulcer index controls).

[2] = system: gastric ulcers; settings: animals, including humans; cited from earlier work
[3] = system: antiallergic activity; settings: cited from earlier work

Compound	inhibition at 5 mg/kg [1] [%]	% Inhibition (oral activity in the ethanol-induced rat ulcer assay) [1]	also measured
CCOC(=O)C(=O)Nc1nc(CC)c(CC)s1 [Example 18, ethyl 4,5-diethylthiazol-2-ylcarbamoylcarboxylate]	81	–	–
ethyl 5-methylthiazol-2-ylcarbamoylcarboxylate [Example 15]	–	48%	–
CC1(C)[C@@H](OC(=O)CCC(=O)O)CC[C@]2(C)[C@H]3C(=O)C=C4[C@@H]5C[C@@](C)(C(=O)O)CC[C@]5(C)CC[C@@]4(C)[C@]3(C)CC[C@@H]12 [carbenoxolone sodium, disodium salt of the hemisuccinate of glycyrrhetinic acid]	–	–	effect on gastric ulcers [2]: prevent formation of and to accelerate healing of gastric ulcers
CCOC(=O)C(=O)Nc1nc2c(s1)CCCC2 [Example 23, ethyl 4,5,6,7-tetrahydrobenzthiazol-2-ylcarbamoylcarboxylate]	51	–	–
CCOC(=O)C(=O)Nc1nc(C)c(C)s1 [Example 16, ethyl 4,5-dimethylthiazol-2-ylcarbamoylcarboxylate]	62	–	–
ethyl 4-methylthiazol-2-ylcarbamoylcarboxylate [Example 14]	–	59%	–
CCOC(=O)C(=O)Nc1nccs1 [ethyl thiazol-2-ylcarbamoylcarboxylate]	3	inactive	antiallergic activity, parenteral ([3]; high parenteral dose): antiallergic activity; antiallergic activity, oral ([3]; oral, even at 200 mg./kg.): no significant oral activity; antiulcer activity (in words) ([1]; compared with compounds of the invention): lacking in the antiulcer activity
